The values that follow come from ChEMBL document CHEMBL2163283, “Design and synthesis of novel stiripentol analogues as potential anticonvulsants” (Eur J Med Chem, 2012).

By ED50 is commonly meant the dose that gives a 50% effect, or the effect in half of the subjects.

Molecules are shown by their SMILES. Activity calls are given as the source filed them. The rule behind the calls is not given here.

Series [1] concerns Mus musculus. As to the kind of experiment: Anticonvulsant activity in Swiss albino mouse assessed as protection against subcutaneous pentylenetetrazol-induced seizures at 108 umol/kg, ip administered 30 mins before pentylenetetrazole challenge measured after 30 mins. The format is functional.
For series [2], the system named is Mus musculus. The series is described as follows: Anticonvulsant activity in Swiss albino mouse assessed as protection against subcutaneous pentylenetetrazol-induced seizures at 410 umol/kg, ip administered 30 mins before pentylenetetrazole challenge measured after 30 mins relative to stiripentol. The format is functional.
In series [3] the test system is Mus musculus. The series is described as follows: Anticonvulsant activity in Swiss albino mouse assessed as protection against subcutaneous pentylenetetrazol-induced seizures at 410 umol/kg, ip administered 30 mins before pentylenetetrazole challenge measured after 30 mins. The format is functional.
Series [4] concerns Mus musculus. The series is described as follows: Anticonvulsant activity in Swiss albino mouse assessed as maximal electroshock-induced seizures at 410 umol/kg, ip administered 30 mins before electroshock challenge. The format is functional. For orientation: In the maximal electroshock model the usual endpoint is tonic extension of the hind limbs.
For series [5], the system named is Mus musculus. The series is described as follows: Anticonvulsant activity in Swiss albino mouse assessed as protection against subcutaneous pentylenetetrazol-induced seizures at 390 umol/kg, ip administered 30 mins before pentylenetetrazole challenge measured after 30 mins. The format is functional.
Series [6] concerns Mus musculus. As to the kind of experiment: Anticonvulsant activity in Swiss albino mouse assessed as protection against subcutaneous pentylenetetrazol-induced seizures at 390 umol/kg, ip administered 30 mins before pentylenetetrazole challenge measured after 30 mins relative to stiripentol. The format is functional.
The subject of series [7] is Mus musculus. The series is described as follows: Anticonvulsant activity in Swiss albino mouse assessed as maximal electroshock-induced seizures at 390 umol/kg, ip administered 30 mins before electroshock challenge. The format is functional, organism-based.
For series [8], the system named is Mus musculus. The series is described as follows: Anticonvulsant activity in Swiss albino mouse assessed as protection against subcutaneous pentylenetetrazol-induced seizures at 350 umol/kg, ip administered 30 mins before pentylenetetrazole challenge measured after 30 mins. The format is functional.
Series [9] relates to Mus musculus. As to the kind of experiment: Anticonvulsant activity in Swiss albino mouse assessed as protection against subcutaneous pentylenetetrazol-induced seizures at 350 umol/kg, ip administered 30 mins before pentylenetetrazole challenge measured after 30 mins relative to stiripentol. The format is functional.
Series [10] concerns Mus musculus. The series is described as follows: Anticonvulsant activity in Swiss albino mouse assessed as maximal electroshock-induced seizures at 350 umol/kg, ip administered 30 mins before electroshock challenge. The format is functional.
Series [11] has as its system Mus musculus. The series is described as follows: Anticonvulsant activity in ip dosed Swiss albino mouse assessed as protection against subcutaneous pentylenetetrazol-induced seizures administered 30 mins before pentylenetetrazole challenge measured after 30 mins. The format is functional.
Series [12] relates to Mus musculus. The series is described as follows: Neurotoxicity in Swiss albino mouse assessed as effect on hindlimb grip strength at 350 umol/kg, sc administered measured every 15 mins for 2 hrs. The format is toxicity, organism-based. The note with it: in vivo.
Series [13] relates to Mus musculus. As to the kind of experiment: Neurotoxicity in Swiss albino mouse assessed as climbing response to inverted mesh at 350 umol/kg, sc administered measured every 15 mins for 2 hrs by wire mesh grasping test. The format is toxicity, organism-based. The settings on record: in vivo.
In series [14] the test system is Mus musculus. The series is described as follows: Anticonvulsant activity in Swiss albino mouse assessed as protection against subcutaneous pentylenetetrazol-induced seizures at 340 umol/kg, ip administered 30 mins before pentylenetetrazole challenge measured after 30 mins. The format is functional.
Series [15] has as its system Mus musculus. The series is described as follows: Anticonvulsant activity in Swiss albino mouse assessed as protection against subcutaneous pentylenetetrazol-induced seizures at 340 umol/kg, ip administered 30 mins before pentylenetetrazole challenge measured after 30 mins relative to stiripentol. The format is functional.
In series [16] the test system is Mus musculus. The series is described as follows: Anticonvulsant activity in Swiss albino mouse assessed as maximal electroshock-induced seizures at 340 umol/kg, ip administered 30 mins before electroshock challenge. The format is functional.
Series [17] deals with Mus musculus. The series is described as follows: Anticonvulsant activity in Swiss albino mouse assessed as protection against subcutaneous pentylenetetrazol-induced seizures at 346 umol/kg, ip administered 30 mins before pentylenetetrazole challenge measured after 30 mins. The format is functional.
The test system of series [18] is Mus musculus. As to the kind of experiment: Anticonvulsant activity in Swiss albino mouse assessed as protection against subcutaneous pentylenetetrazol-induced seizures at 346 umol/kg, ip administered 30 mins before pentylenetetrazole challenge measured after 30 mins relative to stiripentol. The format is functional.
Series [19] relates to Mus musculus. As to the kind of experiment: Anticonvulsant activity in Swiss albino mouse assessed as maximal electroshock-induced seizures at 346 umol/kg, ip administered 30 mins before electroshock challenge. The format is functional.
Series [20] relates to Mus musculus. As to the kind of experiment: Anticonvulsant activity in Swiss albino mouse assessed as protection against subcutaneous pentylenetetrazol-induced seizures at 370 umol/kg, ip administered 30 mins before pentylenetetrazole challenge measured after 30 mins. The format is functional.
Series [21] has as its system Mus musculus. As to the kind of experiment: Anticonvulsant activity in Swiss albino mouse assessed as protection against subcutaneous pentylenetetrazol-induced seizures at 370 umol/kg, ip administered 30 mins before pentylenetetrazole challenge measured after 30 mins relative to stiripentol. The format is functional.
The subject of series [22] is Mus musculus. As to the kind of experiment: Anticonvulsant activity in Swiss albino mouse assessed as maximal electroshock-induced seizures at 370 umol/kg, ip administered 30 mins before electroshock challenge. The format is functional, organism-based.
The test system of series [23] is Mus musculus. The series is described as follows: Anticonvulsant activity in Swiss albino mouse assessed as protection against subcutaneous pentylenetetrazol-induced seizures at 159 umol/kg, ip administered 30 mins before pentylenetetrazole challenge measured after 30 mins. The format is functional, organism-based.
Series [24] concerns Mus musculus. The series is described as follows: Anticonvulsant activity in Swiss albino mouse assessed as maximal electroshock-induced seizures at 159 umol/kg, ip administered 30 mins before electroshock challenge. The format is functional.

For the molecule `CCC1(c2ccccc2)C(=O)NC(=O)NC1=O` [PHENOBARBITAL], the Activity in the series with Mus musculus [1] came out at 100%.
Take `CC(C)(C)C(/C=C/c1ccc2c(c1)OCO2)=N/NC(=O)Nc1ccccc1`: the Activity is reported as 1.3% in the series with Mus musculus [2] and 66% in the series with Mus musculus [3]. For the same molecule, the result with Mus musculus [4] was inactive.
For `Cc1ccc(NC(=O)N/N=C(\C=C\c2ccc3c(c2)OCO3)C(C)(C)C)cc1`, the results for the Activity with Mus musculus [5] and in the series with Mus musculus [6] were 16% and 0.98 ratio to stiripentol, respectively. Also, the result with Mus musculus [7] was inactive.
On to `Cc1ccc(C(=O)N2N=C(C(C)(C)C)CC2c2ccc3c(c2)OCO3)cc1` (racemic), for which the Activity came out at 1.04% in the series with Mus musculus [2], 33% with Mus musculus [3] and 33% with Mus musculus [4].
Take `CC(C)(C)C1=NN(C(=O)c2ccc(Br)cc2)C(c2ccc3c(c2)OCO3)C1` (racemic): the Activity in the series with Mus musculus [8] is recorded as 100%; with Mus musculus [9], 2.13%; in the series on Mus musculus [10], 16%; with Mus musculus [12] it was “Non-toxic”; with Mus musculus [13], “Non-toxic”. Besides, the ED50 in the series with Mus musculus [11] came to 110 mg/kg.
As for `CC(C)(C)C1=NN(C(=O)Nc2ccc(Cl)cc2Cl)C(c2ccc3c(c2)OCO3)C1` (racemic), the Activity with Mus musculus [14] is given as 33%; in the series on Mus musculus [15] it was 1.26%. The result with Mus musculus [16] was inactive.
Consider `Cc1ccccc1C(=O)N1N=C(C(C)(C)C)CC1c1ccc2c(c1)OCO2` (racemic), for which the outcome in the series with Mus musculus [2] and in the series on Mus musculus [3] was inactive. Further, the Activity with Mus musculus [4] was determined as 16%.
`CC(C)(C)C1=NN(C(N)=O)C(c2ccc3c(c2)OCO3)C1` (racemic): the Activity in the series with Mus musculus [17] came to 16%; in the series with Mus musculus [18] it was 1.11%; with Mus musculus [19], 66%.
`CC(C)(C)C1=NN(C(=O)Nc2ccccc2)C(c2ccc3c(c2)OCO3)C1` (racemic): the Activity in the series on Mus musculus [2] is listed as 1.3%; in the series with Mus musculus [3], 66%; in the series on Mus musculus [4] it was 16%.
Turning to `CC(C)(C)C(/C=C/c1ccc2c(c1)OCO2)=N/NC(=O)Nc1ccc(Cl)cc1Cl`, the Activity in the series on Mus musculus [14] came to 33%; in the series on Mus musculus [15] it was 1.26%; with Mus musculus [16], 16%.
For the molecule `CC(C)(C)C(/C=C/c1ccc2c(c1)OCO2)=N/NC(=O)Nc1ccc(Cl)cc1`, the Activity in the series on Mus musculus [20] is 33%; in the series on Mus musculus [21] it was 1.15%. The result in the series on Mus musculus [22] was inactive.
For `O=C1NC(=O)C(c2ccccc2)(c2ccccc2)N1` [PHENYTOIN], in the series on Mus musculus [23], the result was inactive. In the series on Mus musculus [24], the Activity stood at 100%.
